Values quoted from earlier work, collected in paper doi:10.1101/2020.07.01.182659 (bioRxiv, 2020).

Substance: QRPRLSHKGPMP↓F [Apelin-13]
- affinity to APJR (in words) (APJR): nanomolar affinity
- decrease of potency after cleavage of C-terminal phenylalanine (APJR): 2–5 fold
- Km (ACE2): < 10 µM
- kcat/Km (ACE2): > 1e+06 M⁻¹ s⁻¹

Substance: YGGFLRRIRPKL↓K [Dynorphin A 1–13]
- loss of potency on removal of C-terminal lysine (opioid receptors): 90%
- ACE2 activity on peptide (in words) (ACE2): good ACE2 substrate
- Km (ACE2): < 10 µM
- kcat/Km (ACE2): > 1e+06 M⁻¹ s⁻¹

Substance: YPFVEP↓I [β–Casomorphin]
- ACE2 activity on peptide (in words) (ACE2): good ACE2 substrate
